Test results published in PMC8963580, “Biophysical methods in early drug discovery” (ADMET & DMPK, 2019).

Tests used:
[1] = target: T1, 15N-labeled NAD binding domain of PHGDH (Homo sapiens, UniProt O43175); assay: 2D NMR binding assay (1H15N-TROSY-HSQC chemical shift titration); conditions: read-out: Kd (chemical shift change versus compound concentration)
T1 sequence (O43175 93-298 limits assumed): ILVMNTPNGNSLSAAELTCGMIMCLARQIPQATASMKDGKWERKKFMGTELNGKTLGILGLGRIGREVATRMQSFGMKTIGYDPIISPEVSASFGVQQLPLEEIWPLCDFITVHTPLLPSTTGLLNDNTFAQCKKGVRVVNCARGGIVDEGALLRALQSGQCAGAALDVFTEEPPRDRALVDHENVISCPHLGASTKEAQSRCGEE
Source text: The enzyme 3-phosphohydroxyglycerate dehydrogenase (PHGDH) utilises oxidised ninotinamide dinucleotide (NAD+) and catalyses the conversion of 3-phosphohydroxyglycerate to 3-phosphohydroxypyruvate in humans. The conversion of 3-phosphohydroxyglycerate to 3-phosphohydroxypyruvate is the first, and rate-limiting step, in synthesis of the amino acid serine. Studies have linked PHGDH to the in vivo tumourigenesis in aggressive breast tumours and functional genomics reveal that the serine synthesis pathway is essential in breast cancer. Thus, the druggability of the target was explored with small molecules. To this end a fragment screen of 384 fragments was undertaken using crystal cocktail soaking (mixtures of 4) against the NAD binding domain of PHGDH and 34 hits were identified. The binding affinities of these hits were determined in a 2D NMR binding assay using 15N-labeled NAD binding domain, Figure 6a. […] A simple analogue of an initial crystallography hit (compound 1), the 5-fluoroindole-2-carboxamide (compound 2) bound at a resolution of 1.95 Å in the adenine pocket of the NAD binding site (Figure 6b). The indole NH forms a water-bridged hydrogen bond network with Ser-211, and the 5-fluoro substituent fits nicely into a lipophilic cleft in the binding pocket. […]

[2] = target: T2, PHGDH (Homo sapiens, UniProt O43175); assay: Affinity for PHGDH during fragment optimisation (method not given); format: binding
T2 sequence (O43175 1-533): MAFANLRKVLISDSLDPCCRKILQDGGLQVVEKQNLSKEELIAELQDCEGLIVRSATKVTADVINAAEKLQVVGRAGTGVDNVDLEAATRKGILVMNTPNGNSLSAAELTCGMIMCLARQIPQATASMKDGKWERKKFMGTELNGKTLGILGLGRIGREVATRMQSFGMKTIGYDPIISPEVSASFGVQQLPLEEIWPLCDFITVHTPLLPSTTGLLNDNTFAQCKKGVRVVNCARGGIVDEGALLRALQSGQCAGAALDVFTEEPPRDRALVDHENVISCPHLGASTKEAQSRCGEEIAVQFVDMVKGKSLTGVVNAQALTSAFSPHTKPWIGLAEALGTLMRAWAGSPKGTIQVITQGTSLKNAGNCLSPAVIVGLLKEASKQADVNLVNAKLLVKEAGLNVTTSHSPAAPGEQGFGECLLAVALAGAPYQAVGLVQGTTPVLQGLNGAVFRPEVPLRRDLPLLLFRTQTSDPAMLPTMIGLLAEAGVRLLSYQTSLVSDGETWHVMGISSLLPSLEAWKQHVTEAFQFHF
Source text: The enzyme 3-phosphohydroxyglycerate dehydrogenase (PHGDH) utilises oxidised ninotinamide dinucleotide (NAD+) and catalyses the conversion of 3-phosphohydroxyglycerate to 3-phosphohydroxypyruvate in humans. The conversion of 3-phosphohydroxyglycerate to 3-phosphohydroxypyruvate is the first, and rate-limiting step, in synthesis of the amino acid serine. Studies have linked PHGDH to the in vivo tumourigenesis in aggressive breast tumours and functional genomics reveal that the serine synthesis pathway is essential in breast cancer. Thus, the druggability of the target was explored with small molecules. […] The binding affinities of these hits were determined in a 2D NMR binding assay using 15N-labeled NAD binding domain, Figure 6a. […]
Considering this knowledge, a 1D NMR competition assay with NAD+ as the reference compound was developed. […] It is noteworthy that fragments and many of the synthesised analogues had no measurable activity in the human PHGDH protein NAD fluorescence intensity biochemical assay. Whilst the biophysical methods allowed a wide dynamic range of weak mM to sub μM affinities be determined, the biochemical assay could only be used to provide affinities that could drive SAR once those affinities were sub micromolar. […]

[3] = target: InhA.NAD+ (Mycobacterium tuberculosis, UniProt P9WGR1); assay: SPR profiling of DEL screening hits, in the presence of 2 mM NAD+; format: binding
Sequence of InhA.NAD+ (P9WGR1 whole entry, looked up): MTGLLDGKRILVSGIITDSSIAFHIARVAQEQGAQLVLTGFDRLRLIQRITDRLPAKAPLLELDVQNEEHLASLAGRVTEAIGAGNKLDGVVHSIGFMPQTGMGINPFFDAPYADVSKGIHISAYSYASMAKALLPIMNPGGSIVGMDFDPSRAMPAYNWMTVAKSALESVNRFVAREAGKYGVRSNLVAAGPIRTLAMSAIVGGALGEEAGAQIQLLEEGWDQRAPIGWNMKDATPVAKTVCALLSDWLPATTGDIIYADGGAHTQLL

[4] = target: InhA.NADH (Mycobacterium tuberculosis, UniProt P9WGR1); assay: SPR profiling of DEL screening hits, in the presence of 100 μM NADH; format: binding
Sequence of InhA.NADH (P9WGR1 whole entry, looked up): as above

[5] = target: Apo InhA (Mycobacterium tuberculosis, UniProt P9WGR1); assay: SPR profiling of DEL screening hits, compound injected alone; format: binding
Sequence of Apo InhA (P9WGR1 whole entry, looked up): as above

[6] = target: T3, full length PHGDH (Homo sapiens, UniProt O43175); assay: SPR titration, steady state fit; format: binding
T3 sequence (O43175 1-533): T2 sequence (O43175 1-533)
Source text: Considering this knowledge, a 1D NMR competition assay with NAD+ as the reference compound was developed. This screen employed the more physiologically relevant full length PHGDH protein, to provide continuity for affinity measurement during the subsequent analoguing phase. It is noteworthy that fragments and many of the synthesised analogues had no measurable activity in the human PHGDH protein NAD fluorescence intensity biochemical assay. Whilst the biophysical methods allowed a wide dynamic range of weak mM to sub μM affinities be determined, the biochemical assay could only be used to provide affinities that could drive SAR once those affinities were sub micromolar. In summary, a fragment crystal cocktail screen, supported with biophysical affinity measurements, provided the first known small molecule known nanomolar inhibitors of PHGDH and valuable tools for interrogating the biology of this target.
(b) SPR titration data for NADH binding to full length PHGDH, Kd = 0.4 ± 0.03 μM determined from a steady state fit, with the kinetic fit curve shown in the inset. […] No label is printed directly beside the Kd values; 'Spot 1' and 'Spot 2' are printed at the top of the plots.

[7] = target: T3, full length PHGDH; assay: ITC titration; format: binding
[8] = target: T4, NAD binding domain of PHGDH (Homo sapiens, UniProt O43175); assay: SPR titration, steady state fit
T4 sequence (O43175 93-298 limits assumed): T1 sequence (O43175 93-298 limits assumed)

Compound	Kd [3]	Kd [4]	Kd [5]	further results
NC(=O)c1cc2cc(F)ccc2[nH]1 [Compound 2, 5-fluoroindole-2-carboxamide]				Kd [1]: 980 ± 60 µM
COc1cc2[nH]c(C(=O)N[C@H](CO)c3ccccc3)cc2cc1Cl [Compound 4]				affinity ([2]; method not stated): single digit
O=C(O)c1ccc([C@@H](CO)NC(=O)c2cc3cc(Cl)ccc3[nH]2)cc1 [Compound 5]				fold improvement in affinity ([2]; relative to compound 4): 10 fold
Cc1c(CC(=O)NC2CCC(CC(=O)N3CCN(CC(=O)CN)C(=O)C3Cc3ccccc3)CC2)sc2ccccc12 (centres unmarked) [Compound 6]	13.4 ± 4.3 µM	0.3 ± 0.2 µM	> 100 µM	
CNC(=O)CN(Cc1ccc(C)cc1)C(=O)C[C@H]1CC[C@H](CC(=O)c2nnn(Cc3ccccc3)c2C)CC1 [Compound 7]	46.7 ± 11.6 µM	0.09 ± 0.06 µM	> 100 µM	
CNC(=O)c1cnc(NC2CCN(c3ccccn3)CC2)c(NCc2ccc(F)c(Oc3ccccc3)c2)c1 [Compound 8]	> 100 µM	0.3 ± 0.1 µM	> 100 µM	
CNC(=O)CN(C(=O)Cc1ccc(-n2cccn2)cc1)C1CCN(c2ccccn2)CC1 [Compound 9]	> 100 µM	36.8 ± 3.3 µM	> 100 µM	
CNC(=O)C1CC(NC(=O)C(NC(=O)c2ccc(Cn3cccn3)cc2)[C@@H](C)OC(C)(C)C)CN1C(=O)c1ccccc1 (some centres unmarked) [Compound 10]	49 ± 2.9 µM	0.06 ± 0.03 µM	> 100 µM	
CCCc1cc(C(=O)N2CCC(C(=O)NC(CC(=O)NC)c3cccc(C(F)(F)F)c3)(c3ccc(Br)cc3)CC2)n(C)n1 (centres unmarked) [Compound 11]	0.3 ± 0.1 µM	5 ± 1.2 µM	12.4 ± 1.4 µM	
CNC(=O)C1CCCN1C(=O)CC1CCC(NC(=O)C2CC(c3ccccc3)CN2)CC1 (centres unmarked) [Compound 12]	> 100 µM	6.3 ± 2.6 µM	> 100 µM	
NC(=O)C1=CN([C@@H]2O[C@H](COP(=O)(O)OP(=O)(O)OC[C@H]3O[C@@H](n4cnc5c(N)ncnc54)[C@H](O)[C@@H]3O)[C@@H](O)[C@H]2O)C=CC1 [NADH]				Kd ([6]; SPR steady state fit, full length PHGDH): 0.4 ± 0.03 µM; fold tighter binding to the full-length protein than to the NAD binding domain ([6]; combination of ITC and SPR measurements): approximately 20 fold; Kd [7]: 0.33 ± 0.08 µM; N (stoichiometry) [7]: 0.78 ± 0.01; Kd [8]: 6.7 ± 0.5 µM
